Test results reported in article PMC4890114, “Intracellular quantitative detection of human thymidylate synthase engagement with an unconventional inhibitor using tetracysteine-diarsenical-probe technology” (Scientific Reports, 2016).

How the values were obtained:
[1] = complexes of FlAsH with some dodecapeptides including CCPGCC; 'as low as'; read-out: apparent dissociation constant; cited from earlier work
Description: According to a strategy devised by Tsien and co-workers, some fluorogenic biarsenicals can covalently bind proteins that contain a tetracysteine motif, CCXXCC, thereby strongly enhancing their emission quantum yield and making such tetracysteine-containing proteins observable within cells. The CCPGCC sequence features a hairpin conformation that optimizes the covalent binding of each As atom of the probe to the S atoms of two cysteine units. Apparent dissociation constants as low as 4 pM have been measured for complexes formed between the fluorescein diarsenical probe FlAsH and some do ...

[2] = test system: TC-hTS-transfected HEK293T cells; assay: FlAsH-EDT2 staining and confocal imaging of transfected HEK293T cells; assay type: cell-based, human; settings: HEK293T transfected with empty vector, hTS or TC-hTS; 0.5 μM FlAsH, 30 min; confocal microscopy
Protocol: HEK293T cells (3 × 10^4) were plated into 6-well microslides pre-coated with 0.01% (w/v) poly-L lysine and transfected the following day with 2.5 μg of DNA using Lipofectamine™ LTX Transfection Reagent. After 24 h, cells were labelled for 30 min with 12.5 μM 1,2-ethanedithiol (EDT) and 0.5 μM FlAsH (Life Technologies) in HBSS and then washed twice for 15 min in 150 μM 2,3-dimercaptopropanol (BAL) in HBSS. Cells were fixed with 4% (w/v) paraformaldehyde for 15 min at RT and then imaged using an inverted Leica TCS SP2 confocal microscope interfaced with an Ar Laser (488 nm/20 mW), equipped with AOBS and operated at a magnification of 63x (HCX PL APO 63x/1.40 - oil - Lambda blue correction). Images were processed using LCS Lite (Leica Microsystems, Heidelberg).

[3] = test system: TC-hTS in HEK293T cell lysates; assay: FlAsH emission in cell lysates; assay type: binding, human; settings: excitation 480 nm
Protocol: HEK293T cells (10 × 10^6) were plated into 150-mm dishes (6 dishes were used for each condition) and transfected the following day with 25 μg of pcDNA-TS or pcDNA-TS-TC using Lipofectamine™ LTX Transfection Reagent; cells were collected 48 h post-transfection in 15-ml tubes and washed twice with 4 °C cold PBS for spectrofluorometric analysis. […]
UV-visible absorption measurements were performed with a Cary 100 Varian spectrophotometer. Fluorescence measurements were carried out with a Horiba Fluoromax-3 spectrofluorometer. […] The fluorescein, hTS dimer and LR-h concentrations were determined spectrophotometrically using the following extinction coefficients: εmax (fluorescein) = 79000 M^−1 cm^−1, ε280 (hTS) = 89000 M^−1 cm^−1, ε280 (fluorescein) = 30000 M^−1 cm^−1,[28] and ε404 (LR-h) = 35000 M^−1 cm^−1, determined ad hoc for this work. The h (420 nm) and F (522 nm) emissions were measured by excitation at 370 or 380 nm. The F emission values were analysed according to the Scatchard method as functions of the LR-h concentration. The amount measured before LR-h addition and due to the direct excitation of F at 370 nm was subtracted from the intensity measured at 522 nm. […] Similar experiments were performed in 800 μl of the lysate of 60 × 10^6 HEK cells to which hTS-F was added to a concentration of 2.5 μM (determined spectrophotometrically). […]

[4] = target: T1, human thymidylate synthase (hTS) (Homo sapiens, UniProt P04818); assay: Kinetic characterization of the hTS enzyme; assay type: biochemical; settings: mTHF 3.50-69.20 μM; enzyme 0.30 μM, dUMP 120 μM; 340 nm; triplicate
T1 construct: inferred from the nickel-resin purification and the pQE80L vector; made in house; host or cells: E. coli DH5α
Protocol: The enzyme reaction was started when dUMP was added to the reaction mixture. […] For each single determination assay, the experimental data were analysed in triplicate with a p-value < 0.005 representing statistical significance.

Structure (SMILES)	Kd [1] [pM]	green fluorescence enhancement [2]	FlAsH emission, TC-hTS cell lysate versus hTS cell lysate ([3]; after fourth addition, total FlAsH 0.6 μM) [times]	duration of FlAsH emission increase after addition of the probe ([3]; printed for the hTS-expressing cells)	Km [4] [µM]
O=C(O)c1ccccc1-c1c2ccc(=O)c([As]3SCCS3)c-2oc2c([As]3SCCS3)c(O)ccc12 [FlAsH]	≥ 4	green fluorescence enhancement only in TC-hTS-transfected cells	2.5	approximately forty	
Nc1nc2c(c(=O)[nH]1)N1CN(c3ccc(C(=O)N[C@@H](CCC(=O)O)C(=O)O)cc3)CC1CN2 (some centres unmarked) [mTHF, 5,10-methylenetetrahydrofolate]					5.87
